Marks after values point to notes of the source that are not given here.
Columns and labels:
Phytophthora infestans = assay: whole plant or invertebrate; format: in vivo
Plasmopara viticola = assay: Test D: grape downy mildew, spray after inoculation of grape seedlings; format: in vivo
Text: Upon removal, disease ratings were made. […] A dash (-) indicates no test results.

Botrytis cinerea = assay: Test E: tomato botrytis, preventive spray on tomato seedlings
[1] = tested on: Erysiphe graminis f. sp. tritici; assay: Test L: wheat powdery mildew, preventive spray on wheat seedlings
[2] = tested on: Puccinia recondita f. sp. tritici; assay: Test K: wheat leaf rust, preventive spray on wheat seedlings
Septoria nodorum = assay: Test H: wheat glum blotch, preventive spray on wheat seedlings
Procedure: (the causal agent of wheat glum blotch) and incubated in a saturated atmosphere at 20° C. for 48 h, and then moved to a growth chamber at 22° C. for 5 days, after which disease ratings were made.

[3] = tested on: Colletotrichum orbiculare; assay: Test B: cucumber Colletotrichum anthracnose, preventive spray on cucumber seedlings; conditions: 100 = 100% disease control
Pythium aphanidermatum = assay: Test A: bluegrass pythium blight, preventive spray on bluegrass seedlings; conditions: 100 = 100% disease control
Rhizoctonia oryzae = assay: Test G: turf brown patch, preventive spray on creeping bent grass seedlings; conditions: 100 = 100% disease control, 0 = no control
Procedure: (the causal agent of turf brown patch) and incubated in a saturated atmosphere at 27° C. for 24 h, and then moved to a growth chamber at 27° C. for 5 days, after which disease ratings were made.

Septoria tritici = assay: Test J: wheat leaf blotch, preventive spray on wheat seedlings; format: in vivo; conditions: 40 ppm (marked *); 100 = 100% disease control, 0 = no control
Text: A dash (-) indicates no test results.

fusarium graminearium = assay: Test I: wheat head scab, preventive spray on wheat seedlings; conditions: 200 ppm; 100 = 100% disease control, 0 = no control relative to controls
Procedure: (the causal agent of wheat head scab) and incubated in a saturated atmosphere at 20° C. for 72 h, and then moved to a growth chamber at 22° C. for 5 days, after which disease ratings were made.

[4] = 40 ppm (marked *), 100 = 100% disease control, 0 = no control
[5] = 40 ppm (marked *), 0 = no control
[6] = 200 ppm, 0 = no control relative to controls
[7] = 200 ppm, 100 = 100% disease control, 0 = no control relative to controls

SMILES	Test F disease control rating (Phytophthora infestans; [4])	Test D disease control rating (Plasmopara viticola; [4])	Test B disease control rating [3, 5]	Test A disease control rating (Pythium aphanidermatum; [5])	Test G disease control rating (Rhizoctonia oryzae; 40 ppm (marked *))	Test E disease control rating (Botrytis cinerea; [4])	Test L disease control rating [1, 4]	Test K disease control rating [2, 4]	Test J disease control rating (Septoria tritici)	Test H disease control rating (Septoria nodorum; [4])	further results
CC(C)Cn1c(-c2ccc(C(F)(F)F)cc2)c(Cl)nc(-n2cccn2)c1=O [compound 36]											Test F disease control rating (Phytophthora infestans; 200 ppm): 0%; Test D disease control rating (Plasmopara viticola; 200 ppm): 0%; Test E disease control rating (Botrytis cinerea; 200 ppm): 0%; Test L disease control rating ([1]; 200 ppm): 0%; Test K disease control rating ([2]; 200 ppm): 0%; Test H disease control rating (Septoria nodorum; 200 ppm): 0%
COc1ccc(-c2c(Cl)nc(-n3cccn3)c(=O)n2CC(C)C)cc1 [compound 37]											Test F disease control rating (Phytophthora infestans; 200 ppm): 0%; Test D disease control rating (Plasmopara viticola; 200 ppm): 0%; Test E disease control rating (Botrytis cinerea; 200 ppm): 100%; Test L disease control rating ([1]; 200 ppm): 0%; Test K disease control rating ([2]; 200 ppm): 89%; Test H disease control rating (Septoria nodorum; 200 ppm): 100%
CC(C)Cn1c(-c2ccc(OC(F)(F)F)cc2)c(Cl)nc(-n2cccn2)c1=O [compound 38]											Test F disease control rating (Phytophthora infestans; 200 ppm): 0%; Test D disease control rating (Plasmopara viticola; 200 ppm): 0%; Test E disease control rating (Botrytis cinerea; 200 ppm): 0%; Test L disease control rating ([1]; 200 ppm): 0%; Test K disease control rating ([2]; 200 ppm): 0%; Test H disease control rating (Septoria nodorum; 200 ppm): 0%
O=c1c(-n2cccn2)nc(Cl)c(-c2c(F)cccc2F)n1Cc1ccccc1F [compound 336]	0* %	0* %	0* %	0* %	41* %	99* %	98* %	100* %	100* %	99* %	
Cc1ccn(-c2nc(Cl)c(-c3c(F)cc(F)cc3F)n(-c3ccccc3F)c2=O)n1 [compound 355]	0* %	0* %	99* %	0* %	66* %	99* %	57* %	99* %	100* %	100* %	
Cc1ccn(-c2nc(Cl)c(-c3c(F)cc(F)cc3F)n(-c3cccc(F)c3)c2=O)n1 [compound 356]	0* %	0* %	99* %	0* %	93* %	100* %	100* %	100* %	100* %	100* %	
Cc1ccn(-c2nc(Cl)c(-c3c(F)ccc(F)c3F)n(-c3ccccc3)c2=O)n1 [compound 358]		0* %	0* %	0* %	92* %	99* %	91* %	100* %	100* %	100* %	
O=c1c(-n2cccn2)nc(Cl)c(-c2c(F)cc(F)cc2F)n1-c1ccc(F)c(F)c1 [compound 365]	0* %	16* %	99* %	0* %	99* %	98* %	96* %	100* %	100* %	100* %	
Cc1ccn(-c2nc(Cl)c(-c3c(F)cc(F)cc3F)n(-c3ccc(F)c(F)c3)c2=O)n1 [compound 366]	0* %	0* %	99* %	0* %	89* %	99* %	93* %	100* %	96* %	100* %	
O=c1c(-n2cccn2)nc(Cl)c(-c2c(F)cc(F)cc2F)n1-c1cc(F)cc(F)c1 [compound 367]	0* %	0* %	100* %	0* %	99* %	99* %	99* %	100* %	99* %	100* %	
Cc1ccn(-c2nc(Cl)c(-c3c(F)cc(F)cc3F)n(-c3cc(F)cc(F)c3)c2=O)n1 [compound 368]	0* %	0* %	99* %	0* %	99* %	99* %	99* %	100* %	100* %	100* %	
O=c1c(-n2cccn2)nc(Cl)c(-c2c(F)cc(F)cc2F)n1-c1cccc(F)c1F [compound 369]	0* %	0* %	100* %	0* %	99* %	99* %	98* %	100* %	100* %	100* %	
Cc1ccn(-c2nc(Cl)c(-c3c(F)cc(F)cc3F)n(-c3cccc(F)c3F)c2=O)n1 [compound 370]	0* %	0* %	100* %	0* %	92* %	99* %	96* %	100* %	100* %	100* %	
O=c1c(-n2cccn2)nc(Cl)c(-c2c(F)cc(F)cc2F)n1-c1ccc(Cl)cc1 [compound 371]	0* %	0* %	99* %	0* %	99* %	99* %	98* %	100* %	100* %	100* %	
Cc1ccn(-c2nc(Cl)c(-c3c(F)cc(F)cc3F)n(-c3ccc(Cl)cc3)c2=O)n1 [compound 372]	0* %	0* %	100* %	0* %		99* %		100* %	100* %	100* %	Test G disease control rating (Rhizoctonia oryzae; 200 ppm): 82%; Test L disease control rating ([1]; 200 ppm, 100 = 100% disease control, 0 = no control): 98%
C#CCNC(=O)c1nc(Cl)c(-c2c(F)cc(F)cc2F)n(CC(C)CC)c1=O (centres unmarked) [compound 416]											Test B disease control rating [3, 6]: 99%; Test E disease control rating (Botrytis cinerea; [7]): 99%; Test I disease control rating (fusarium graminearium): 0%; Test L disease control rating [1, 7]: 99%; Test K disease control rating [2, 7]: 100%; Test H disease control rating (Septoria nodorum; [7]): 100%
NC(=O)c1nc(Cl)c(-c2c(F)ccc(F)c2F)n(-c2ccccc2)c1=O [compound 419]					0* %	97* %	0* %	100* %		94* %	Test F disease control rating (Phytophthora infestans; [7]): 95%; Test D disease control rating (Plasmopara viticola; [7]): 32%; Test A disease control rating (Pythium aphanidermatum; [6]): 100%; Test I disease control rating (fusarium graminearium): 73%
NC(=O)c1nc(Cl)c(-c2c(F)cc(F)cc2F)n(-c2ccccc2)c1=O [compound 420]					0* %	94* %	41* %	100* %		96* %	Test F disease control rating (Phytophthora infestans; [7]): 100%; Test D disease control rating (Plasmopara viticola; [7]): 31%; Test A disease control rating (Pythium aphanidermatum; [6]): 98%; Test I disease control rating (fusarium graminearium): 60%

— patent publication US20080194585A1, “Fungicidal Pyrazine Derivatives” (priority 2005, published 2008)
